≈ marks a conversion by molar mass, not a printed value.
Columns and labels:
Pseudomonas aeruginosa [1] = experiment: Antibacterial activity against Pseudomonas aeruginosa PAO1 under muller hinton medium by CLSI protocol based microdilution method; assay type: functional
Pseudomonas aeruginosa [2] = experiment: Antibacterial activity against Pseudomonas aeruginosa PAO1 under succinate minimum medium by CLSI protocol based microdilution method; assay type: functional
Pseudomonas aeruginosa [3] = experiment: Antibacterial activity against Pseudomonas aeruginosa PAO1 under 1 uM FeCl3 medium by CLSI protocol based microdilution method; assay type: functional
Pseudomonas aeruginosa [4] = experiment: Antibacterial activity against Pseudomonas aeruginosa PAD07 under muller hinton medium by CLSI protocol based microdilution method; assay type: functional
Pseudomonas aeruginosa [5] = experiment: Antibacterial activity against Pseudomonas aeruginosa PAD07 under succinate minimum medium by CLSI protocol based microdilution method; assay type: functional
Pseudomonas aeruginosa [6] = experiment: Antibacterial activity against Pseudomonas aeruginosa PAD07 under 1 uM FeCl3 medium by CLSI protocol based microdilution method; assay type: functional
Pseudomonas aeruginosa [7] = experiment: Antibacterial activity against Pseudomonas aeruginosa AM85 under muller hinton medium by CLSI protocol based microdilution method; assay type: functional
Pseudomonas aeruginosa [8] = experiment: Antibacterial activity against Pseudomonas aeruginosa AM85 under succinate minimum medium by CLSI protocol based microdilution method; assay type: functional
Pseudomonas aeruginosa [9] = experiment: Antibacterial activity against Pseudomonas aeruginosa AM85 under 1 uM FeCl3 medium by CLSI protocol based microdilution method; assay type: functional
[10] = system: Burkholderia pseudomallei; experiment: Antibacterial activity against Burkholderia pseudomallei BPS2020IRBA001 under muller hinton medium by CLSI protocol based microdilution method; assay type: functional
[11] = system: Burkholderia pseudomallei; experiment: Antibacterial activity against Burkholderia pseudomallei BPS2020IRBA001 under succinate minimum medium by CLSI protocol based microdilution method; assay type: functional
[12] = system: Burkholderia pseudomallei; experiment: Antibacterial activity against Burkholderia pseudomallei BPS2020IRBA001 under 1 uM FeCl3 medium by CLSI protocol based microdilution method; assay type: functional
[13] = system: Burkholderia pseudomallei; experiment: Antibacterial activity against Burkholderia pseudomallei BPS2020IRBA002 under muller hinton medium by CLSI protocol based microdilution method; assay type: functional
[14] = system: Burkholderia pseudomallei; experiment: Antibacterial activity against Burkholderia pseudomallei BPS2020IRBA002 under succinate minimum medium by CLSI protocol based microdilution method; assay type: functional
[15] = system: Burkholderia pseudomallei; experiment: Antibacterial activity against Burkholderia pseudomallei BPS2020IRBA002 under 1 uM FeCl3 medium by CLSI protocol based microdilution method; assay type: functional
[16] = system: Burkholderia pseudomallei; experiment: Antibacterial activity against Burkholderia pseudomallei K96243 under muller hinton medium by CLSI protocol based microdilution method; assay type: functional
[17] = system: Burkholderia pseudomallei; experiment: Antibacterial activity against Burkholderia pseudomallei K96243 under succinate minimum medium by CLSI protocol based microdilution method; assay type: functional
[18] = system: Burkholderia pseudomallei; experiment: Antibacterial activity against Burkholderia pseudomallei K96243 under 1 uM FeCl3 medium by CLSI protocol based microdilution method; assay type: functional
[19] = system: Burkholderia pseudomallei; experiment: Antibacterial activity against Burkholderia pseudomallei BPS2020IRBA003 under muller hinton medium by CLSI protocol based microdilution method; assay type: functional
[20] = system: Burkholderia pseudomallei; experiment: Antibacterial activity against Burkholderia pseudomallei BPS2020IRBA003 under succinate minimum medium by CLSI protocol based microdilution method; assay type: functional
[21] = system: Burkholderia pseudomallei; experiment: Antibacterial activity against Burkholderia pseudomallei BPS2020IRBA003 under 1 uM FeCl3 medium by CLSI protocol based microdilution method; assay type: functional
[22] = system: Burkholderia pseudomallei; experiment: Antibacterial activity against Burkholderia pseudomallei BPS2020IRBA004 under muller hinton medium by CLSI protocol based microdilution method; assay type: functional
[23] = system: Burkholderia pseudomallei; experiment: Antibacterial activity against Burkholderia pseudomallei BPS2020IRBA005 under muller hinton medium by CLSI protocol based microdilution method; assay type: functional
[24] = system: Burkholderia pseudomallei; experiment: Antibacterial activity against Burkholderia pseudomallei BPS2020IRBA005 under succinate minimum medium by CLSI protocol based microdilution method; assay type: functional
[25] = Antibacterial activity against Burkholderia pseudomallei BPS2020IRBA005 under 1 uM FeCl3 medium by CLSI protocol based microdilution method; assay type: functional; conditions: Burkholderia thailandensis
[26] = system: Burkholderia thailandensis; experiment: Antibacterial activity against Burkholderia thailandensis E264 under muller hinton medium by CLSI protocol based microdilution method; assay type: functional
[27] = system: Burkholderia thailandensis; experiment: Antibacterial activity against Burkholderia thailandensis E264 under succinate minimum medium by CLSI protocol based microdilution method; assay type: functional
[28] = system: Burkholderia thailandensis; experiment: Antibacterial activity against Burkholderia thailandensis E264 under 1 uM FeCl3 medium by CLSI protocol based microdilution method; assay type: functional
[29] = system: Burkholderia thailandensis; experiment: Antibacterial activity against Burkholderia thailandensis E264TS32C10 under muller hinton medium by CLSI protocol based microdilution method; assay type: functional
[30] = system: Burkholderia thailandensis; experiment: Antibacterial activity against Burkholderia thailandensis E264TS32C10 under succinate minimum medium by CLSI protocol based microdilution method; assay type: functional
[31] = system: Burkholderia thailandensis; experiment: Antibacterial activity against Burkholderia thailandensis E264TS32C10 under 1 uM FeCl3 medium by CLSI protocol based microdilution method; assay type: functional
[32] = system: Burkholderia thailandensis; experiment: Antibacterial activity against Burkholderia thailandensis E264TS32C12 under muller hinton medium by CLSI protocol based microdilution method; assay type: functional
[33] = system: Burkholderia thailandensis; experiment: Antibacterial activity against Burkholderia thailandensis E264TS32C12 under succinate minimum medium by CLSI protocol based microdilution method; assay type: functional
[34] = system: Burkholderia thailandensis; experiment: Antibacterial activity against Burkholderia thailandensis E264TS32C12 under 1 uM FeCl3 medium by CLSI protocol based microdilution method; assay type: functional
[35] = system: Burkholderia thailandensis; experiment: Antibacterial activity against Burkholderia thailandensis E264TS32C47 under muller hinton medium by CLSI protocol based microdilution method; assay type: functional
[36] = system: Burkholderia thailandensis; experiment: Antibacterial activity against Burkholderia thailandensis E264TS32C47 under succinate minimum medium by CLSI protocol based microdilution method; assay type: functional
[37] = system: Burkholderia thailandensis; experiment: Antibacterial activity against Burkholderia thailandensis E264TS32C47 under 1 uM FeCl3 medium by CLSI protocol based microdilution method; assay type: functional
HepG2 = experiment: Cytotoxicity against human HepG2 cells at 23 ug/ml after 48 hrs by CellTiter-Glo luminescent cell viability assay; assay type: toxicity, cell-based; conditions: hepg2, 48 h, dose 23 µg/ml
[38] = system: Burkholderia pseudomallei; experiment: Antibacterial activity against Burkholderia pseudomallei BPS2020IRBA005 under 1 uM FeCl3 medium after 48 hrs by CLSI protocol based microdilution method; assay type: functional

SMILES	MIC (Pseudomonas aeruginosa [1])	MIC (Pseudomonas aeruginosa [2])	MIC (Pseudomonas aeruginosa [3])	MIC (Pseudomonas aeruginosa [4])	MIC (Pseudomonas aeruginosa [5])	MIC (Pseudomonas aeruginosa [6])	MIC (Pseudomonas aeruginosa [7])	MIC (Pseudomonas aeruginosa [8])	MIC (Pseudomonas aeruginosa [9])	MIC [10]	MIC [11]	MIC [13]	MIC [14]	MIC [15]	MIC [17]	MIC [18]	MIC [19]	MIC [22]	MIC [24]	MIC [26]	further results
O=C(O)c1cn(C2CC2)c2cc(N3CCN(C(=O)c4cccc(O)c4O)CC3)c(F)cc2c1=O	16 µg/mL (≈ 34.2 µM)	32 µg/mL (≈ 68.5 µM)	32 µg/mL (≈ 68.5 µM)	8 µg/mL (≈ 17.1 µM)	1 µg/mL (≈ 2.14 µM)	8 µg/mL (≈ 17.1 µM)	> 128 µg/mL	128 µg/mL (≈ 274 µM)	> 128 µg/mL	32 µg/mL (≈ 68.5 µM)	32 µg/mL (≈ 68.5 µM)	16 µg/mL (≈ 34.2 µM)	8 µg/mL (≈ 17.1 µM)	16 µg/mL (≈ 34.2 µM)	2 µg/mL (≈ 4.28 µM)	4 µg/mL (≈ 8.56 µM)	16 µg/mL (≈ 34.2 µM)	32 µg/mL (≈ 68.5 µM)	8 µg/mL (≈ 17.1 µM)	16 µg/mL (≈ 34.2 µM)	MIC [12]: 32 µg/mL (≈ 68.5 µM); MIC [16]: 8 µg/mL (≈ 17.1 µM); MIC [20]: 8 µg/mL (≈ 17.1 µM); MIC [21]: 16 µg/mL (≈ 34.2 µM); MIC [23]: 64 µg/mL (≈ 137 µM); MIC [25]: 8 µg/mL (≈ 17.1 µM); MIC [27]: 8 µg/mL (≈ 17.1 µM); MIC [28]: 8 µg/mL (≈ 17.1 µM); MIC [29]: 32 µg/mL (≈ 68.5 µM); MIC [30]: 32 µg/mL (≈ 68.5 µM); MIC [31]: 32 µg/mL (≈ 68.5 µM); MIC [32]: 32 µg/mL (≈ 68.5 µM); MIC [33]: 16 µg/mL (≈ 34.2 µM); MIC [34]: 16 µg/mL (≈ 34.2 µM); MIC [35]: 16 µg/mL (≈ 34.2 µM); MIC [36]: 8 µg/mL (≈ 17.1 µM); MIC [37]: 8 µg/mL (≈ 17.1 µM); Activity (HepG2): Non-Toxic
O=C(O)c1cn(C2CC2)c2cc(N3CCN(C(=O)c4ccc(O)c(O)c4)CC3)c(F)cc2c1=O	8 µg/mL (≈ 17.1 µM)	8 µg/mL (≈ 17.1 µM)	8 µg/mL (≈ 17.1 µM)	8 µg/mL (≈ 17.1 µM)	8 µg/mL (≈ 17.1 µM)	8 µg/mL (≈ 17.1 µM)	> 128 µg/mL	128 µg/mL (≈ 274 µM)	> 128 µg/mL	> 128 µg/mL	128 µg/mL (≈ 274 µM)	> 128 µg/mL	> 128 µg/mL	> 128 µg/mL	64 µg/mL (≈ 137 µM)	64 µg/mL (≈ 137 µM)	128 µg/mL (≈ 274 µM)	128 µg/mL (≈ 274 µM)	> 128 µg/mL	128 µg/mL (≈ 274 µM)	MIC [12]: 128 µg/mL (≈ 274 µM); MIC [16]: 64 µg/mL (≈ 137 µM); MIC [20]: 128 µg/mL (≈ 274 µM); MIC [21]: 128 µg/mL (≈ 274 µM); MIC [23]: > 128 µg/mL; MIC [25]: > 128 µg/mL; MIC [27]: 64 µg/mL (≈ 137 µM); MIC [28]: 128 µg/mL (≈ 274 µM); MIC [29]: > 128 µg/mL; MIC [30]: > 128 µg/mL; MIC [31]: > 128 µg/mL; MIC [32]: > 128 µg/mL; MIC [33]: > 128 µg/mL; MIC [34]: > 128 µg/mL; MIC [35]: > 128 µg/mL; MIC [36]: > 128 µg/mL; MIC [37]: > 128 µg/mL; Activity (HepG2): Non-Toxic
CC(C)(O/N=C(\C(=O)N[C@@H]1C(=O)N2C(C(=O)[O-])=C(C[n+]3ccccc3)CS[C@H]12)c1csc(N)n1)C(=O)O [CEFTAZIDIME]	1 µg/mL (≈ 1.83 µM)	0.25 µg/mL (≈ 0.457 µM)	1 µg/mL (≈ 1.83 µM)	1 µg/mL (≈ 1.83 µM)	0.25 µg/mL (≈ 0.457 µM)	1 µg/mL (≈ 1.83 µM)	4 µg/mL (≈ 7.32 µM)	0.25 µg/mL (≈ 0.457 µM)	4 µg/mL (≈ 7.32 µM)	2 µg/mL (≈ 3.66 µM)	2 µg/mL (≈ 3.66 µM)	128 µg/mL (≈ 234 µM)	64 µg/mL (≈ 117 µM)	> 128 µg/mL	8 µg/mL (≈ 14.6 µM)	8 µg/mL (≈ 14.6 µM)	2 µg/mL (≈ 3.66 µM)	8 µg/mL (≈ 14.6 µM)	8 µg/mL (≈ 14.6 µM)	4 µg/mL (≈ 7.32 µM)	MIC [27]: 4 µg/mL (≈ 7.32 µM); MIC [28]: 4 µg/mL (≈ 7.32 µM); MIC [29]: 1 µg/mL (≈ 1.83 µM); MIC [30]: 2 µg/mL (≈ 3.66 µM); MIC [31]: 2 µg/mL (≈ 3.66 µM); MIC [32]: 4 µg/mL (≈ 7.32 µM); MIC [33]: 8 µg/mL (≈ 14.6 µM); MIC [34]: 8 µg/mL (≈ 14.6 µM); MIC [35]: 4 µg/mL (≈ 7.32 µM); MIC [36]: 4 µg/mL (≈ 7.32 µM); MIC [37]: 4 µg/mL (≈ 7.32 µM); MIC [38]: 8 µg/mL (≈ 14.6 µM)
O=C(O)c1cn(C2CC2)c2cc(N3CCN(C(=O)c4cc(=O)c(O)c[nH]4)CC3)c(F)cc2c1=O	32 µg/mL (≈ 68.3 µM)	32 µg/mL (≈ 68.3 µM)	32 µg/mL (≈ 68.3 µM)	32 µg/mL (≈ 68.3 µM)	2 µg/mL (≈ 4.27 µM)	16 µg/mL (≈ 34.2 µM)	> 128 µg/mL	> 128 µg/mL	> 128 µg/mL	> 128 µg/mL	> 128 µg/mL	> 128 µg/mL	> 128 µg/mL	> 128 µg/mL	> 128 µg/mL	> 128 µg/mL	> 128 µg/mL	> 128 µg/mL	> 128 µg/mL	> 128 µg/mL	MIC [12]: > 128 µg/mL; MIC [16]: > 128 µg/mL; MIC [20]: > 128 µg/mL; MIC [21]: > 128 µg/mL; MIC [23]: > 128 µg/mL; MIC [25]: > 128 µg/mL; MIC [27]: > 128 µg/mL; MIC [28]: > 128 µg/mL; MIC [29]: 32 µg/mL (≈ 68.3 µM); MIC [30]: > 128 µg/mL; MIC [31]: > 128 µg/mL; MIC [32]: > 128 µg/mL; MIC [33]: > 1.8 µg/mL; MIC [34]: > 128 µg/mL; MIC [35]: > 128 µg/mL; MIC [36]: > 128 µg/mL; MIC [37]: > 128 µg/mL; Activity (HepG2): Non-Toxic
